From EP1935887A1, “Heterocyclic substituted carbonyl derivatives and their use as dopamine D3 receptor ligands” (Aventis Pharmaceuticals Inc., priority 2001, dated 2002)

Target: T1, Cloned Human Dopamine D3 Receptors (Homo sapiens, UniProt P35462)
T1 construct: expressed in transfected cells; membrane homogenate
Experiment: [N-Methyl-3H]Spiroperidol binding to cloned human dopamine D3 receptors
Settings: Table 2; unit inferred; read-out: d3Ki
How it was run: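 Membranes from CHO cells stably expressing human D3 receptor, homogenised in 10% DMSO and stored at -80°C. Binding uses [N-methyl-3H]spiroperidol in Tris buffer, pH 7.7.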

T1 sequence (P35462 whole entry): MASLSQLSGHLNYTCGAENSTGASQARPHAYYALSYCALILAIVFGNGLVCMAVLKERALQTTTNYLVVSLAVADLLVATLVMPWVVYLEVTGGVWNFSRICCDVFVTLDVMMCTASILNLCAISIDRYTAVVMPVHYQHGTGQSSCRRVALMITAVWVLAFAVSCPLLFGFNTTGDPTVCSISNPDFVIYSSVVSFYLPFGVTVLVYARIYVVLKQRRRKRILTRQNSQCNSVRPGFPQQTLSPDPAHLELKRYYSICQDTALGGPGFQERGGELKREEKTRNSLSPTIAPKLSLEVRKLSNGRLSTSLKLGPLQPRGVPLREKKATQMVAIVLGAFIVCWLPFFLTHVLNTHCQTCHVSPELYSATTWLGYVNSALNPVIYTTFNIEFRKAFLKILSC

| SMILES | Ki [nM] |
| --- | --- |
| CCOC(=O)[C@H]1CC[C@H](NC(=O)CCCN2CCN(c3csc4cc(C(F)(F)F)ccc34)CC2CCc2ccccc2)CC1 (some centres unmarked) [compound 827071] | 454 |
| CN(C(=O)CCCN1CCN(c2csc3cc(C(F)(F)F)ccc23)CC1CCc1ccccc1)C1CCCCC1 (centres unmarked) [compound 827074] | 267 |
| CN(C(=O)CCCN1CCN(c2csc3cc(C(F)(F)F)ccc23)CC1CCCc1ccccc1)C1CCCCC1 (centres unmarked) [compound 827079] | 126 |
| CCOC(=O)C1CCC(NC(=O)CCCN2CCN(c3csc4cc(F)ccc34)CC2Cc2ccccc2)CC1 (centres unmarked) [compound 827086] | 334 |
| CCC1CCC(NC(=O)CCCN2CCN(c3csc4cc(F)ccc34)CC2Cc2ccccc2)CC1 (centres unmarked) [compound 827087] | 178 |
| CC1CCCC(NC(=O)CCCN2CCN(c3csc4cc(F)ccc34)CC2Cc2ccccc2)C1 (centres unmarked) [compound 827088] | 284 |
| CN(C(=O)CCCN1CCN(c2csc3cc(F)ccc23)CC1Cc1ccccc1)C1CCCCC1 (centres unmarked) [compound 827089] | 307 |
| CCN(C(=O)CCCN1CCN(c2csc3cc(F)ccc23)CC1Cc1ccccc1)C1CCCCC1 (centres unmarked) [compound 827090] | 346 |
| O=C(CCCN1CCN(c2csc3cc(F)ccc23)CC1Cc1ccccc1)NC1CCCC1 (centres unmarked) [compound 827101] | 148 |
| O=C(CCCN1CCN(c2csc3cc(F)ccc23)CC1Cc1ccccc1)NC1CCCCC1 (centres unmarked) [compound 827102] | 218 |
| C[C@H]1CC[C@H](NC(=O)CCCN2CCN(c3csc4cc(F)ccc34)CC2CCCc2ccccc2)CC1 (some centres unmarked) [compound 827105] | 117 |
| CCOC(=O)C1CCC(NC(=O)CCCN2CCN(c3csc4cc(F)ccc34)CC2CCCc2ccccc2)CC1 (centres unmarked) [compound 827106] | 317 |
| CC[C@H]1CC[C@H](NC(=O)CCCN2CCN(c3csc4cc(F)ccc34)CC2CCCc2ccccc2)CC1 (some centres unmarked) [compound 827107] | 489 |
| CC1CCCC(NC(=O)CCCN2CCN(c3csc4cc(F)ccc34)CC2CCCc2ccccc2)C1 (centres unmarked) [compound 827108] | 302 |
| CN(C(=O)CCCN1CCN(c2csc3cc(F)ccc23)CC1CCCc1ccccc1)C1CCCCC1 (centres unmarked) [compound 827109] | 78.6 |
| CCN(C(=O)CCCN1CCN(c2csc3cc(F)ccc23)CC1CCCc1ccccc1)C1CCCCC1 (centres unmarked) [compound 827110] | 208 |
| O=C(CCCN1CCN(c2csc3cc(F)ccc23)CC1CCCc1ccccc1)N(CCO)C1CCCCC1 (centres unmarked) [compound 827111] | 143 |

Other lines, results leading:

| Ki [nM] | SMILES |
| --- | --- |
| 2.35 | CC1CCC(NC(=O)C2CC2CN2CCN(c3ccc(F)cc3)CC2)CC1 (centres unmarked) [compound 827196] |
| 161 | C[C@H]1CC[C@H](NC(=O)[C@@H]2C[C@H]2CN2CCN(CCc3ccccc3)CC2)CC1 [compound 827198] |
| 126 | C[C@H]1CC[C@H](NC(=O)[C@@H]2C[C@H]2CN2CCN(Cc3ccc4c(c3)OCO4)CC2)CC1 [compound 827201] |

Same assay, conditions: Table 2 part the 10th table; read-out: d3Ki

| Ki [nM] | SMILES |
| --- | --- |
| 209 | CC1CCCN(C(=O)CCCN2CCN(c3csc4cc(C(F)(F)F)ccc34)CC2Cc2ccccc2)C1 (centres unmarked) [compound 827066] |
| 268 | O=C(CCCN1CCN(c2csc3cc(C(F)(F)F)ccc23)CC1Cc1ccccc1)N1CCC(N2CCCC2)CC1 (centres unmarked) [compound 827067] |
| 197 | CC1(C)CCCN(C(=O)CCCN2CCN(c3csc4cc(C(F)(F)F)ccc34)CC2Cc2ccccc2)C1 (centres unmarked) [compound 827068] |
| 303 | CCOC(=O)C1CCN(C(=O)CCCN2CCN(c3csc4cc(C(F)(F)F)ccc34)CC2CCCc2ccccc2)CC1 (centres unmarked) [compound 827082] |
| 266 | CC1CCCCN1C(=O)CCCN1CCN(c2csc3cc(C(F)(F)F)ccc23)CC1CCCc1ccccc1 (centres unmarked) [compound 827084] |
| 84 | O=C(CCCN1CCN(c2csc3cc(F)ccc23)CC1Cc1ccccc1)N1CCC(O)CC1 (centres unmarked) [compound 827093] |
| 34.6 | CC1CCCCN1C(=O)CCCN1CCN(c2csc3cc(F)ccc23)CC1Cc1ccccc1 (centres unmarked) [compound 827094] |
| 37.8 | CC1CCN(C(=O)CCCN2CCN(c3csc4cc(F)ccc34)CC2Cc2ccccc2)CC1 (centres unmarked) [compound 827095] |
| 44.7 | CC1CCCN(C(=O)CCCN2CCN(c3csc4cc(F)ccc34)CC2Cc2ccccc2)C1 (centres unmarked) [compound 827096] |
| 51.5 | O=C(CCCN1CCN(c2csc3cc(F)ccc23)CC1Cc1ccccc1)N1CCC(N2CCCC2)CC1 (centres unmarked) [compound 827097] |
| 82.9 | CC1(C)CCCN(C(=O)CCCN2CCN(c3csc4cc(F)ccc34)CC2Cc2ccccc2)C1 (centres unmarked) [compound 827098] |
| 144 | CC1CC(C)CN(C(=O)CCCN2CCN(c3csc4cc(F)ccc34)CC2Cc2ccccc2)C1 (centres unmarked) [compound 827099] |
| 63.5 | O=C(CCCN1CCN(c2csc3cc(F)ccc23)CC1Cc1ccccc1)N1CCCC1 (centres unmarked) [compound 827100] |
| 81.7 | CC1CCCN1C(=O)CCCN1CCN(c2csc3cc(F)ccc23)CC1Cc1ccccc1 (centres unmarked) [compound 827103] |
| 141 | CN(C)C1CCN(C(=O)CCCN2CCN(c3csc4cc(F)ccc34)CC2Cc2ccccc2)C1 (centres unmarked) [compound 827104] |
| 126 | CCOC(=O)C1CCN(C(=O)CCCN2CCN(c3csc4cc(F)ccc34)CC2CCCc2ccccc2)CC1 (centres unmarked) [compound 827112] |
| 95 | O=C(CCCN1CCN(c2csc3cc(F)ccc23)CC1CCCc1ccccc1)N1CCC(O)CC1 (centres unmarked) [compound 827113] |
| 120 | CC1CCCCN1C(=O)CCCN1CCN(c2csc3cc(F)ccc23)CC1CCCc1ccccc1 (centres unmarked) [compound 827114] |

Same assay, conditions: read-out: D3 Ki

| Ki [nM] | SMILES |
| --- | --- |
| 237 | CC(C)(C)OC(=O)N1CCN(C[C@@H]2C[C@H]2C(=O)N[C@H]2CC[C@H](C)CC2)CC1 [compound 827184] |

Same assay, conditions: read-out: d3Ki

| SMILES | Ki [nM] |
| --- | --- |
| C[C@H]1CC[C@H](NC(=O)[C@@H]2C[C@H]2CN2CCN(c3cccc(Cl)c3)CC2)CC1 [compound 827173] | 2.78 |
| Cc1ccc(N2CCN(C[C@@H]3C[C@H]3C(=O)N[C@H]3CC[C@H](C)CC3)CC2)cc1 [compound 827174] | 8.7 |
| C[C@H]1CC[C@H](NC(=O)[C@@H]2C[C@H]2CN2CCN(c3ccccn3)CC2)CC1 [compound 827175] | 4 |

More lines, now with the values ahead:

| Ki [nM] | SMILES |
| --- | --- |
| 1.18 | CCOc1ccccc1N1CCN(C[C@@H]2C[C@H]2C(=O)N[C@H]2CC[C@H](C)CC2)CC1 [compound 827176] |
| 1 | C[C@H]1CC[C@H](NC(=O)[C@@H]2C[C@H]2CN2CCN(c3ccccc3Cl)CC2)CC1 [compound 827177] |
| 12.4 | C[C@H]1CC[C@H](NC(=O)[C@@H]2C[C@H]2CN2CCN(c3ccc(Cl)cc3)CC2)CC1 [compound 827178] |
| 1.04 | COc1ccccc1N1CCN(C[C@@H]2C[C@H]2C(=O)N[C@H]2CC[C@H](C)CC2)CC1 [compound 827179] |
| 2.47 | Cc1cccc(N2CCN(C[C@@H]3C[C@H]3C(=O)N[C@H]3CC[C@H](C)CC3)CC2)c1 [compound 827180] |
| 97.2 | C[C@H]1CC[C@H](NC(=O)[C@@H]2C[C@H]2CN2CCN(c3ccc(C(F)(F)F)cc3Cl)CC2)CC1 [compound 827181] |
| 73 | C[C@H]1CC[C@H](NC(=O)[C@@H]2C[C@H]2CN2CCN(c3ccc(C(F)(F)F)cn3)CC2)CC1 [compound 827182] |
| 3.29 | C[C@H]1CC[C@H](NC(=O)[C@@H]2C[C@H]2CN2CCN(c3ncccc3C(F)(F)F)CC2)CC1 [compound 827183] |
| 4.89 | C[C@H]1CC[C@H](NC(=O)[C@@H]2C[C@H]2CN2CCN(c3ccc(Cl)c(Cl)c3)CC2)CC1 [compound 827185] |
| 8.21 | Cc1ccc(C)c(N2CCN(C[C@@H]3C[C@H]3C(=O)N[C@H]3CC[C@H](C)CC3)CC2)c1 [compound 827186] |
| 10.6 | C[C@H]1CC[C@H](NC(=O)[C@@H]2C[C@H]2CN2CCN(c3cnccn3)CC2)CC1 [compound 827187] |
| 126 | C[C@H]1CC[C@H](NC(=O)[C@@H]2C[C@H]2CN2CCN(c3ccco3)CC2)CC1 [compound 827189] |
| 2.42 | C[C@H]1CC[C@H](NC(=O)[C@@H]2C[C@H]2CN2CCN(c3cccc(C(F)(F)F)c3)CC2)CC1 [compound 827190] |
| 0.724 | C[C@H]1CC[C@H](NC(=O)[C@@H]2C[C@H]2CN2CCN(c3ccccc3)CC2)CC1 [compound 827191] |
| 40.6 | Cc1ccc(N2CCN(C[C@@H]3C[C@H]3C(=O)N[C@H]3CC[C@H](C)CC3)CC2)c(C)c1 [compound 827193] |
| 24.4 | COc1ccc(N2CCN(C[C@@H]3C[C@H]3C(=O)N[C@H]3CC[C@H](C)CC3)CC2)cc1 [compound 827194] |
| 8.18 | COc1cccc(N2CCN(C[C@@H]3C[C@H]3C(=O)N[C@H]3CC[C@H](C)CC3)CC2)c1 [compound 827195] |
| 27.6 | CC1CCC(NC(=O)C2CC2CN2CCN(c3ncccn3)CC2)CC1 (centres unmarked) [compound 827197] |
| 4.34 | C[C@H]1CC[C@H](NC(=O)[C@@H]2C[C@H]2CN2CCN(c3ccc(Cl)c(C(F)(F)F)c3)CC2)CC1 [compound 827199] |
| 119 | Cc1cccc(C)c1N1CCN(C[C@@H]2C[C@H]2C(=O)N[C@H]2CC[C@H](C)CC2)CC1 [compound 827200] |
| 200 | C[C@H]1CC[C@H](NC(=O)[C@@H]2C[C@H]2CN2CCN(c3ccc([N+](=O)[O-])cc3)CC2)CC1 [compound 827205] |
| 59.7 | CC(=O)c1ccc(N2CCN(C[C@@H]3C[C@H]3C(=O)N[C@H]3CC[C@H](C)CC3)CC2)cc1 [compound 827206] |
| 1.2 | CC[C@H]1CC[C@H](NC(=O)[C@@H]2C[C@H]2CN2CCN(c3cccc(Cl)c3)CC2)CC1 [compound 827212] |
| 11.1 | CC[C@H]1CC[C@H](NC(=O)[C@@H]2C[C@H]2CN2CCN(c3ccc(C)cc3)CC2)CC1 [compound 827213] |
| 6.13 | CC[C@H]1CC[C@H](NC(=O)[C@@H]2C[C@H]2CN2CCN(c3ccccn3)CC2)CC1 [compound 827214] |
| 0.229 | CCOc1ccccc1N1CCN(C[C@@H]2C[C@H]2C(=O)N[C@H]2CC[C@H](CC)CC2)CC1 [compound 827215] |
| 2.16 | CC[C@H]1CC[C@H](NC(=O)[C@@H]2C[C@H]2CN2CCN(c3ccccc3Cl)CC2)CC1 [compound 827216] |
| 1.22 | CC[C@H]1CC[C@H](NC(=O)[C@@H]2C[C@H]2CN2CCN(c3ccccc3OC)CC2)CC1 [compound 827218] |
| 2.63 | CC[C@H]1CC[C@H](NC(=O)[C@@H]2C[C@H]2CN2CCN(c3cccc(C)c3)CC2)CC1 [compound 827219] |
